Measurements from patent US12123017B2, “Composition and method for cultivation, expansion, preservation and/or cell pretreatment” (REGENERO S.A., priority 2017, dated 2024).

Test system: Umbilical cord derived mesenchymal stem cells
Assay: Biopreservation of MSCs at 4° C. for three days (viability by trypan blue, adhesion, proliferation, migration)
Format: cell-based
Settings: 0.1 μM in CBS, P<0.01
Experimental: Approximately 200,000 umbilical cord derived mesenchymal stem cells were stored in 200 μl of commercial biopreservation solution (CBS) as a control and 200 μl of CBS supplemented with the medium supplement of the invention. The samples were kept at 4° C. for three days. Cells were resuspended in DMEM base, and viability was assessed by trypan blue exclusion assay. […] Cell adhesion was evaluated 24 hours after cells were seeded in 10 mm plates. […] Finally, the cells preserved with CBS proliferated less than those preserved in CBS with pterostilbene (FIG. 4D). Therefore, the solution of the invention improves the functionality of the cells after 3 days of biopreservation.

With `COc1cc(/C=C/c2ccc(O)cc2)cc(OC)c1` [Pterostilbene] the “cell viability better compared to CBS alone” value was “approximately 10%”.
